In assay [1] the target is T1, human full length PIK3KA H1047R mutant (p110α/p85α complex) (Homo sapiens, UniProt P42336, H1047R).
T1 construct: Recombinant, catalytically active human full length PIK3KA Wild-type and H1047R mutant were purchased as 1:1 complex; 6xHis (N); purchased EMD Millipore Sigma 14-792M
Kind of assay: PI3K-alpha kinase (PIK3CA) biochemical activity, H1047R mutant, ADP-Glo. As to conditions: PI3K-α (PIK3CA) biochemical, H1047R mutant, Soy PI lipid substrate. The procedure, abridged:
(§1)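 ADP formation, read by ADP-Glo, is run to about 10% ATP turnover at 27 °C with 20 μM ATP and 50 μM PIP2diC8 or soy PI. WT or H1047R p110α/p85α (1–5 nM) is pre-incubated 1 h with compound in HEPES pH 7.4/MgCl2/Triton buffer, 1% DMSO. 10-point 1:3 series, logistic IC50 versus no-enzyme and DMSO controls.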
For orientation: ADP-Glo turns the ADP formed in a reaction into a luminescent signal.

The target in assay [2] is T2, human full length PIK3KA Wild-type (p110α/p85α complex) (Homo sapiens, UniProt P42336).
T2 construct: Recombinant, catalytically active human full length PIK3KA Wild-type and H1047R mutant were purchased as 1:1 complex; 6xHis (N); purchased EMD Millipore Sigma 14-602M
Kind of assay: PI3K-alpha kinase (PIK3CA) biochemical activity, wild-type, ADP-Glo. As to conditions: PI3K-α (PIK3CA) biochemical, Soy PI lipid substrate. An outline of the steps:
as §1

The subject of assay [3] is PI3K-α (PIK3CA) in MDA-MB-453 cells. Kind of assay: PI3K-alpha kinase (PIK3CA) activity in vitro cell based assay, MDA-MB-453 cells, AlphaLisa SureFire. As to conditions: 0% FBS, 3 hours treatment, relative IC50. An outline of the steps:
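MDA-MB-453 cells in serum-free MEM with 1 μg/mL insulin treated 3 h with 10-point 1:3 compound dilutions, 0.3% DMSO. Lysates read by AlphaLisa SureFire; percent inhibition relative to DMSO (max) and 1 μM GDC-0032 (min), duplicate means fitted to 4-parameter logistic for relative IC50.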

T1 sequence (P42336 whole entry H1047R): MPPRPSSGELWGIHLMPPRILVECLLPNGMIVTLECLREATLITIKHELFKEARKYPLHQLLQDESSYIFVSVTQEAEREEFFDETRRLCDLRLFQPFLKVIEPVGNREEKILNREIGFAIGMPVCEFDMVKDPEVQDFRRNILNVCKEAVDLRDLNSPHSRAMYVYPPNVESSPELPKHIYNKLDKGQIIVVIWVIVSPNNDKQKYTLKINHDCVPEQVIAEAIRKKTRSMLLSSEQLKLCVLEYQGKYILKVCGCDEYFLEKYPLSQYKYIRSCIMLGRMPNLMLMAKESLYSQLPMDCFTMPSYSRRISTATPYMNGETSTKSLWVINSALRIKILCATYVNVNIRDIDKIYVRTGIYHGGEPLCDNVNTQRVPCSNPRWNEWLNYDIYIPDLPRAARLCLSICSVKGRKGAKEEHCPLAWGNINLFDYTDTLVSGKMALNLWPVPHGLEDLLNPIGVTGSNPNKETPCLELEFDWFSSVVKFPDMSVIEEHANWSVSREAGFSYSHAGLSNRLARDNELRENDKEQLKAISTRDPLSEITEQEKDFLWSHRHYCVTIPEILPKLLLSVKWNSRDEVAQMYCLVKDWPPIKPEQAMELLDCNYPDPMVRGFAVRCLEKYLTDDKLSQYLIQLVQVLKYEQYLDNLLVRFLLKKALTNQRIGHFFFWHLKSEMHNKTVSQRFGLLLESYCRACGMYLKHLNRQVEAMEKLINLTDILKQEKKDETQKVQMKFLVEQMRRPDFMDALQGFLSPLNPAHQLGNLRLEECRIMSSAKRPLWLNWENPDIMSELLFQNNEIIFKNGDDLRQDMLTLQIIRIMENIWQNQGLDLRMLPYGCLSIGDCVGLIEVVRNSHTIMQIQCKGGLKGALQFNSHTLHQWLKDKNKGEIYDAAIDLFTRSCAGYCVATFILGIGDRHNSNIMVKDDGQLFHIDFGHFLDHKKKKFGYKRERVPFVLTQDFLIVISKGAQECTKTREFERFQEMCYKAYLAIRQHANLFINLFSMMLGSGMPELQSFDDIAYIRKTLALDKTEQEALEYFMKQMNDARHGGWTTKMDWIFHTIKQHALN
T1 sequence (P27986 whole entry partner): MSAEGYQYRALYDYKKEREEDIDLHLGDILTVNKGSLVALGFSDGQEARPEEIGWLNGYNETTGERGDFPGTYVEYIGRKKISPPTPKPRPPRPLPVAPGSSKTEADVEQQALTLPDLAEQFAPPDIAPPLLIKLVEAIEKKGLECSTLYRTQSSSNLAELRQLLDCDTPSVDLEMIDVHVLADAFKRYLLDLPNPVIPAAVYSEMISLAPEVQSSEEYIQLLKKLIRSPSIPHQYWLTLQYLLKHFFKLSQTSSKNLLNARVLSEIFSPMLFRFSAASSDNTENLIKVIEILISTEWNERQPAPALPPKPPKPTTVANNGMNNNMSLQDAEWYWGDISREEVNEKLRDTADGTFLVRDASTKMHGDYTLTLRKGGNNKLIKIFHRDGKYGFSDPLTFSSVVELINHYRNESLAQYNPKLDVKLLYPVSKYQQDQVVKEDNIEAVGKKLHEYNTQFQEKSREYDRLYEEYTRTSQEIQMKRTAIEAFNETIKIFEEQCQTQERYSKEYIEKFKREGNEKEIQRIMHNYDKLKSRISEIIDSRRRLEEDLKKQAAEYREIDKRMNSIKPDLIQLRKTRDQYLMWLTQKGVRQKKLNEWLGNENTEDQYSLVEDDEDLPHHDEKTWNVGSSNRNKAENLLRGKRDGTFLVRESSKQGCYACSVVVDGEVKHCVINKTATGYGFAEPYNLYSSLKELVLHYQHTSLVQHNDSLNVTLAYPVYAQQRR

Broadly, the IC50 is the midpoint of a concentration-inhibition curve. In the case of `Cc1cc([C@@H](C)Nc2ccccc2C(=O)O)c2oc(-c3ccccc3)c(-c3cccnc3)c(=O)c2c1` [Example 156, 2-[[(1R)-1-[6-Methyl-4-oxo-2-phenyl-3-(3-pyridyl)chromen-8-yl]ethyl]amino]benzoic acid 2,2,2-trifluoroacetic acid], the IC50 in assay [1] is 500 to 1000 nM; in assay [2], 1000 to 5000 nM; in assay [3] (Homo sapiens, MDA-MB-453, 3 h) it was 100 to 500 nM.
Turning to `Cc1cc(C(C)Nc2ccccc2C(=O)O)c2oc(-c3ccc(C4(C#N)CC4)cc3)cc(=O)c2c1` (single isomer, unassigned; isomer 1) [Example 52, 2-[1-[2-[4-(l-Cyanocyclopropyl)phenyl]-6-methyl-4-oxo-chromen-8-yl]ethylamino]benzoic acid, Isomer 1], the IC50 in assay [1] is 5000 to 10000 nM; in assay [2], 5000 to 10000 nM; in assay [3] (Homo sapiens, MDA-MB-453, 3 h), above 500 nM.
On to `Cc1cc([C@@H](C)Nc2ccccc2C(=O)O)c2oc(-c3cccc(C#N)c3)c(C)c(=O)c2c1` [Example 30, 2-[[(1R)-1-[2-(3-Cyanophenyl)-3,6-dimethyl-4-oxo-chromen-8-yl]ethyl]amino]benzoic acid], for which the IC50 in assay [1] is below 500 nM; in assay [2] it was 500 to 1000 nM; in assay [3] (Homo sapiens, MDA-MB-453, 3 h) it was below 50 nM.
Taken in the same sequence, the figures for `Cc1cc([C@@H](C)Nc2ccc(C(F)(F)F)nc2C(=O)O)c2oc(-c3cccc(C#N)c3)c(C)c(=O)c2c1` [Example 126, 3-[[(1R)-1-[2-(3-Cyanophenyl)-3,6-dimethyl-4-oxo-chromen-8-yl]ethyl]amino]-6-(trifluoromethyl)pyridine-2-carboxylic acid] were below 500 nM, 1000 to 5000 nM and below 50 nM.
`Cc1cc([C@@H](C)Nc2ccccc2C(=O)O)c2oc(-c3ccccc3)c(C(F)(F)F)c(=O)c2c1` [Example 70, 2-[[(1R)-1-[6-Methyl-4-oxo-2-phenyl-3-(trifluoromethyl)-chromen-8-yl]ethyl]amino]benzoic acid 2,2,2-trifluoroacetic acid]: the IC50 in assay [1] is below 500 nM; in assay [2], 1000 to 5000 nM; in assay [3] (Homo sapiens, MDA-MB-453, 3 h) it was below 50 nM.
Take `Cc1cc([C@@H](C)Nc2ccccc2C(=O)O)c2oc(-c3cc(F)cc(F)c3)cc(=O)c2c1` [Example 68, 2-[[(1R)-1-[2-(3,5-Difluorophenyl)-6-methyl-4-oxo-chromen-8-yl]ethyl]amino]benzoic acid 2,2,2-trifluoroacetic acid]: the IC50 was below 500 nM in assay [1]; 1000 to 5000 nM in assay [2]; below 50 nM in assay [3] (Homo sapiens, MDA-MB-453, 3 h).
Taken in the same sequence, the figures for `Cc1cc([C@@H](C)Nc2ccc(Cl)nc2C(=O)O)c2oc(-c3ccccc3)c(C)c(=O)c2c1` [Example 1, 6-Chloro-3-[[(1R)-1-(3,6-dimethyl-4-oxo-2-phenyl-chromen-8-yl)ethyl]amino]pyridine-2-carboxylic acid] were below 500 nM, 500 to 1000 nM and below 50 nM.
With `Cc1cc([C@@H](C)Nc2ccccc2C(=O)O)c2oc(-c3cccc(F)c3F)c(C)c(=O)c2c1` [Example 92, 2-[[(1R)-1-[2-(2,3-Difluorophenyl)-3,6-dimethyl-4-oxo-chromen-8-yl]ethyl]amino]benzoic acid 2,2,2-trifluoroacetic acid], the IC50 in assay [1] was below 500 nM; in assay [2], 5000 to 10000 nM; in assay [3] (Homo sapiens, MDA-MB-453, 3 h), below 50 nM.
For `Cc1cc([C@@H](C)Nc2ccccc2C(=O)O)c2oc(-c3ccc(-c4cn[nH]c4)cc3)cc(=O)c2c1` [Example 163, 2-[[(1R)-1-[6-Methyl-4-oxo-2-[4-(1H-pyrazol-4-yl)phenyl]chromen-8-yl]ethyl]amino]benzoic acid] the same measures were 500 to 1000 nM, 1000 to 5000 nM and 50 to 100 nM.
`Cc1cc(C(C)Nc2cccnc2C(=O)O)c2oc(-c3ccccc3F)c(C)c(=O)c2c1` (stereo not drawn) [Example 93, 3-[1-[2-(2-Fluorophenyl)-3,6-dimethyl-4-oxo-chromen-8-yl]ethylamino]pyridine-2-carboxylic acid 2,2,2-trifluoroacetic acid]: the IC50 is 1000 to 5000 nM in assay [1]; above 10000 nM in assay [2]; 100 to 500 nM in assay [3] (Homo sapiens, MDA-MB-453, 3 h).
Taken in the same sequence, the figures for `Cc1cc([C@@H](C)Nc2ccc(C)c(F)c2C(=O)O)c2oc(-c3ccccc3)c(C)c(=O)c2c1` [Example 43, 6-[[(1R)-1-(3,6-Dimethyl-4-oxo-2-phenyl-chromen-8-yl)ethyl]amino]-2-fluoro-3-methyl-benzoic acid] were below 500 nM, 1000 to 5000 nM and 50 to 100 nM.
Taken in the same sequence, the figures for `Cc1cc(C(C)Nc2cccc(F)c2C(=O)O)c2oc(-c3ccccc3F)c(C)c(=O)c2c1` (single isomer, unassigned; isomer 2) [Example 104, 2-Fluoro-6-[1-[2-(2-fluorophenyl)-3,6-dimethyl-4-oxo-chromen-8-yl]ethylamino]benzoic acid, Isomer 2] were 500 to 1000 nM, above 10000 nM and 100 to 500 nM.
In the case of `Cc1cc([C@@H](C)Nc2ccccc2C(=O)O)c2oc(-c3ccc(-c4c(C)n[nH]c4C)cc3)c(C)c(=O)c2c1` [Example 165, 2-[[(1R)-1-[2-[4-(3,5-Dimethyl-1H-pyrazol-4-yl)phenyl]-3,6-dimethyl-4-oxo-chromen-8-yl]ethyl]amino]benzoic acid], the IC50 is below 500 nM in assay [1]; 1000 to 5000 nM in assay [2]; below 50 nM in assay [3] (Homo sapiens, MDA-MB-453, 3 h).
For `Cc1cc([C@@H](C)Nc2ccccc2C(=O)O)c2oc(-c3ccccc3)c(-c3cnoc3)c(=O)c2c1` [Example 85, 2-[[(1R)-1-(3-Isoxazol-4-yl-6-methyl-4-oxo-2-phenyl-chromen-8-yl)ethyl]amino]benzoic acid 2,2,2-trifluoroacetic acid] the same measures were below 500 nM, 1000 to 5000 nM and below 50 nM.
Taken in the same sequence, the figures for `Cc1cc([C@@H](C)Nc2ccc(F)cc2C(=O)O)c2oc(-c3ccccc3)c(C)c(=O)c2c1` [Example 58, 2-[[(1R)-1-(3,6-Dimethyl-4-oxo-2-phenyl-chromen-8-yl)ethyl]amino]-5-fluoro-benzoic acid] were below 500 nM, below 500 nM and below 50 nM.
Taken in the same sequence, the figures for `Cc1cc(C(C)Nc2ccccc2C(=O)O)c2oc(-c3cccc(C(C)(C)C#N)c3)cc(=O)c2c1` (single isomer, unassigned; isomer 1) [Example 4, 2-[1-[2-[3-(1-Cyano-1-methyl-ethyl)phenyl]-6-methyl-4-oxo-chromen-8-yl]ethylamino]benzoic acid, Isomer 1] were above 10000 nM, above 10000 nM and above 500 nM.
For the compound `Cc1cc([C@@H](C)Nc2ccccc2C(=O)O)c2oc(-c3ccccc3)c(C3COC3)c(=O)c2c1` [Example 112, 2-[[(1R)-1-[6-methyl-3-(oxetan-3-yl)-4-oxo-2-phenyl-chromen-8-yl]ethyl]amino]benzoic acid 2,2,2-trifluoroacetic acid], the concentration for half-maximal inhibition (IC50) is below 500 nM in assay [1]; 1000 to 5000 nM in assay [2]; 50 to 100 nM in assay [3] (Homo sapiens, MDA-MB-453, 3 h).
As to `Cc1cc(C(C)Nc2cccc(F)c2C(=O)O)c2oc(-c3ccccc3F)c(C)c(=O)c2c1` (stereo not drawn) [Example 94, 2-Fluoro-6-[1-[2-(2-fluorophenyl)-3,6-dimethyl-4-oxo-chromen-8-yl]ethylamino]benzoic acid 2,2,2-trifluoroacetic acid], the IC50 was below 500 nM in assay [1]; 1000 to 5000 nM in assay [2]; below 50 nM in assay [3] (Homo sapiens, MDA-MB-453, 3 h).
With `Cc1cc([C@@H](C)Nc2ccc(C#N)cc2C(=O)O)c2oc(-c3ccccc3)c(C)c(=O)c2c1` (single isomer, unassigned; isomer 2) [Example 158], the values for the 50% inhibitory concentration (IC50) in assay [1], in assay [2] and in assay [3] were below 500 nM, 1000 to 5000 nM and below 50 nM, respectively.

The record behind these values is patent US11873295B2, “Allosteric chromenone inhibitors of phosphoinositide 3-kinase (PI3K) for the treatment of disease” (Petra Pharma Corporation, priority 2021, dated 2024).
